Data taken from ChEMBL document CHEMBL1201862, “PubChem BioAssay data set” (2004).
Active and inactive are the calls of the source.

What was measured:
[1] = molecular target: Heat shock protein HSP 90-alpha (Homo sapiens, UniProt P07900); type: functional, organism-based
[2] = molecular target: 1-phosphatidylinositol 4,5-bisphosphate phosphodiesterase gamma-1 (Homo sapiens, UniProt P19174); test: Counterscreen for inhibitors of phospholipase C isozymes (PLC-B3): Fluorescence-based biochemical high throughput dose response assay to identify inhibitors of phospholipase C isozymes (PLC-gamma1).
Sequence of 1-phosphatidylinositol 4,5-bisphosphate phosphodiesterase gamma-1 (P19174 whole entry): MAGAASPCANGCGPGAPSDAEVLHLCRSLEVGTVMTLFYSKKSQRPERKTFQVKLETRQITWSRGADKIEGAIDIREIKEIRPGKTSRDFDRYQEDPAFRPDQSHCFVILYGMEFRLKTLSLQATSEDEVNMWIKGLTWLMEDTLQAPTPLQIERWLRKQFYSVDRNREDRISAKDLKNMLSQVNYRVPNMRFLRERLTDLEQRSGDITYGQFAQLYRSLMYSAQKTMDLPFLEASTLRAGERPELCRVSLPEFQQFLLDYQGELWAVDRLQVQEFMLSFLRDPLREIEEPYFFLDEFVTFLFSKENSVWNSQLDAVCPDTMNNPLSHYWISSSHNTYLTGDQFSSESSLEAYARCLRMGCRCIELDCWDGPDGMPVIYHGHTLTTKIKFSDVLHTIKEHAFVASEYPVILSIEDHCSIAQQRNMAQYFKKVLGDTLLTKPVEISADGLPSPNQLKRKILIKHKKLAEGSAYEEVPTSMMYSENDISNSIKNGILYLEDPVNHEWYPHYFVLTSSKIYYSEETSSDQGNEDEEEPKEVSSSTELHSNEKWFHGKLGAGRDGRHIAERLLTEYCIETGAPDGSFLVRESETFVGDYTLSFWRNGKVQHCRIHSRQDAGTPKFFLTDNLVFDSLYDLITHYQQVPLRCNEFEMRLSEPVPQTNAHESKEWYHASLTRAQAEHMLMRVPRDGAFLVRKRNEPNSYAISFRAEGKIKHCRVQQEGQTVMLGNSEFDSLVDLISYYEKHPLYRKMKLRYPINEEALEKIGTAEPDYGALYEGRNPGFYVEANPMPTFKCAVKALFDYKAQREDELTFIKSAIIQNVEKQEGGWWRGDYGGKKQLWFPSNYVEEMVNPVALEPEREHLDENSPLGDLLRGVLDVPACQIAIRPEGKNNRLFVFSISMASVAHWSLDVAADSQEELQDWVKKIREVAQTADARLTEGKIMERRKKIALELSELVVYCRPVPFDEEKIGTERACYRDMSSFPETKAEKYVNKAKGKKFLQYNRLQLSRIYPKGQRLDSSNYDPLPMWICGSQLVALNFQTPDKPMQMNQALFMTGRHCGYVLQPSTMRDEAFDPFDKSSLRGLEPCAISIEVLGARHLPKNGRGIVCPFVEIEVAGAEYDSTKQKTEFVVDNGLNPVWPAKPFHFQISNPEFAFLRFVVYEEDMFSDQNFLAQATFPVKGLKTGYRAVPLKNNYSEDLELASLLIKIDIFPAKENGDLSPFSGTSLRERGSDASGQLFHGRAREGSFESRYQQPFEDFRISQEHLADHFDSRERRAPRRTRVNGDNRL

[3] = fluconazole-exposed Candida albicans growth modulators – fluorescence, retest, confirmation (AID 2467); type: functional, cell-based
[4] = molecular target: T1, Serine/threonine-protein phosphatase (Candida dubliniensis (strain CD36 / CBS 7987 / NCPF 3949 / NRRLY-17841) (Yeast), UniProt B9W6M3); test: blockers of CaCl2-induced CDRE-lacZ signaling – S. cerevisiae, luminescence, secondary, dose response (AID 2388); type: functional, cell-based;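 also: yeast reporter cells carrying a calcineurin-responsive lacZ construct stimulated with calcium chloride; luminescent beta-galactosidase reporter signal in whole cells rather than isolated phosphatase activity; potency for inhibition where a drop in reporter signal means calcineurin blockade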
T1 sequence (B9W6M3 whole entry): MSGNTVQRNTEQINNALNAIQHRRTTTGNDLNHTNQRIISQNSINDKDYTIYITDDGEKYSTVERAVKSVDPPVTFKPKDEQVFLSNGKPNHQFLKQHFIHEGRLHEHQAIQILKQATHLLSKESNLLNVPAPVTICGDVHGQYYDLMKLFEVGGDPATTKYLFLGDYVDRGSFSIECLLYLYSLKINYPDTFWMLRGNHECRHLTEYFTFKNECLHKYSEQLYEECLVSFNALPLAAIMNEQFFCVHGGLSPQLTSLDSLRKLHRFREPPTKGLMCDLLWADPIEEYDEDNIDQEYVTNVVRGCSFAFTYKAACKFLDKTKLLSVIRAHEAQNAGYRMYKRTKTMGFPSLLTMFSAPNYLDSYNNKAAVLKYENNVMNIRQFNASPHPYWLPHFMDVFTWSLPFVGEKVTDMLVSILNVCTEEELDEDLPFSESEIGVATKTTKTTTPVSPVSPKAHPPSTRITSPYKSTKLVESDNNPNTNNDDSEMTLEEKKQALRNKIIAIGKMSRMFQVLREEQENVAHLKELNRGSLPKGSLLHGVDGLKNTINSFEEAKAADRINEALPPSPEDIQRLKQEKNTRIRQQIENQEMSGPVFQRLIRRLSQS

[5] = NIH-3T3 fibroblast cytotoxicity, dose response, cytotoxicity control, cell-based, fluorescence, Alamar Blue, secondary assay (AID 2327); type: functional;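 also: NIH-3T3 mouse fibroblasts cultured with fluconazole at 8 µg/mL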
[6] = molecular target: 1-phosphatidylinositol 4,5-bisphosphate phosphodiesterase beta-3 (Homo sapiens, UniProt Q01970); test: Fluorescence-based biochemical high throughput dose response assay to identify inhibitors of phospholipase C isozymes (PLC-B3).
[7] = molecular target: ATP-dependent molecular chaperone HSP82 (Candida albicans (strain WO-1) (Yeast), UniProt C4YTQ8); test: steroid-induced GRE reporter decrease in yeast – S. cerevisiae, luminescence, Hsp90 inhibitor project, dose response (AID 2400); type: functional, cell-based;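 also: beta-galactosidase luminescence from glucocorticoid response element reporter as proxy for Hsp90 function; inhibitor potency where signal loss means Hsp90 inhibition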
Sequence of ATP-dependent molecular chaperone HSP82 (C4YTQ8 whole entry): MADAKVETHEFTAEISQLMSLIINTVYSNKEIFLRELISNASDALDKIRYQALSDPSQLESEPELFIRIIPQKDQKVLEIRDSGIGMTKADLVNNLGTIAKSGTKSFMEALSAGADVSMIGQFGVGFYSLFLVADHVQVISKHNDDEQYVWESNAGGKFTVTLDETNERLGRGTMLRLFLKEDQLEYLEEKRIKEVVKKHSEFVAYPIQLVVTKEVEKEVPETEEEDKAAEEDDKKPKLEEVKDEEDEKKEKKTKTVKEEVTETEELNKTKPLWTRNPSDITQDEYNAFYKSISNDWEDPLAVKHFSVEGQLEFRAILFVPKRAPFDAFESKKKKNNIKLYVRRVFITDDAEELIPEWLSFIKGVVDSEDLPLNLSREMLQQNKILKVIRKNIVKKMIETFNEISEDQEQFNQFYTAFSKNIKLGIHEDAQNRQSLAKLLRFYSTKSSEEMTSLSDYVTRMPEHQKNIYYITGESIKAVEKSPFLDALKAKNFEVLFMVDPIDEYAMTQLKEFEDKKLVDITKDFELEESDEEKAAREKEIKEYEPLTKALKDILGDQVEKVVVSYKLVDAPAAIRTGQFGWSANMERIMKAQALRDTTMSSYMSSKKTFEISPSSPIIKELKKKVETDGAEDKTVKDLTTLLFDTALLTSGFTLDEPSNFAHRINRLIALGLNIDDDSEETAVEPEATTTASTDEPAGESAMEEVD

cells = type: functional, cell-based; conditions: HEK-CNG
[8] = viability of HCT116 lacking mutant beta-catenin – cell-based, human colon tumor, dose response (AID 1045); type: functional;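 also: HCT116 colon tumor cells with beta catenin knocked out; cells exposed to compound for 60 hours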
[9] = Shn3 3'UTR reporter signal decrease – cell-based, Clone20 osteoblasts, firefly luciferase, cherry-pick, set 2, Schnurri-3 inhibitor project, dose response (AID 720490); type: functional;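 also: actives lower the luminescence signal as inhibitors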
[10] = non-specific 3'UTR reporter inhibition in Clone20-Shn3RL – cell-based, Renilla luciferase, cherry-picked, counter-screen for Shn3 inhibitor project, dose response (AID 624133); type: functional
[11] = loss of viability in HepG2 cells – cell-based, CellTiter-Glo, cherry-picked, cytotoxicity control for Shn3 inhibitor project, dose response (AID 624134); type: functional
[12] = reduction of Shn3 3'UTR-driven luciferase in osteoblasts – cell-based, Clone20 osteoblasts, firefly luciferase, cherry-picked, dose response (AID 624132); type: functional;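 also: firefly luciferase luminescence from reporter carrying the Shn3 3'UTR in osteoblasts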
[13] = EF1alpha-driven Renilla reporter with control 3'UTR suppression – Clone20-Shn3RL cells, dual-Glo, cherry-pick, set 2, counter-screen for Shn3 3'UTR targeting project, dose response (AID 720724); type: functional, cell-based; conditions: Dual-Go Shn3RL
Galanin receptor type 3 = molecular target: T2, Galanin receptor type 3 (Homo sapiens, UniProt O60755); test: Fluorescence-based cell-based primary high throughput dose response assay to identify antagonists of the Galanin Receptor 3 (GalR3).; type: functional
T2 sequence (O60755 whole entry): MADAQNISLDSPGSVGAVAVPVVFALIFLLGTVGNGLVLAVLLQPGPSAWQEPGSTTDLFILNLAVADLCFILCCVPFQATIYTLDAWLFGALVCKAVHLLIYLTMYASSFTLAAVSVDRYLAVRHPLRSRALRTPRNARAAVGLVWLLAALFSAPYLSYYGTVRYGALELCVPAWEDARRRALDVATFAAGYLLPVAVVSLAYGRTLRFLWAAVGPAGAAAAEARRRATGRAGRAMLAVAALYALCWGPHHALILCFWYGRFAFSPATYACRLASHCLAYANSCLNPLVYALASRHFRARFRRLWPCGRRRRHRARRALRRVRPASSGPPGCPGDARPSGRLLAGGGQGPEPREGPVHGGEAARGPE

[14] = molecular target: Endoplasmic reticulum aminopeptidase 1 (Homo sapiens, UniProt Q9NZ08); test: inhibition of human ERAP1 enzyme activity – biochemical, cherry-pick, set 2, plate reader, dose response (AID 743314)
Sequence of Endoplasmic reticulum aminopeptidase 1 (Q9NZ08 whole entry): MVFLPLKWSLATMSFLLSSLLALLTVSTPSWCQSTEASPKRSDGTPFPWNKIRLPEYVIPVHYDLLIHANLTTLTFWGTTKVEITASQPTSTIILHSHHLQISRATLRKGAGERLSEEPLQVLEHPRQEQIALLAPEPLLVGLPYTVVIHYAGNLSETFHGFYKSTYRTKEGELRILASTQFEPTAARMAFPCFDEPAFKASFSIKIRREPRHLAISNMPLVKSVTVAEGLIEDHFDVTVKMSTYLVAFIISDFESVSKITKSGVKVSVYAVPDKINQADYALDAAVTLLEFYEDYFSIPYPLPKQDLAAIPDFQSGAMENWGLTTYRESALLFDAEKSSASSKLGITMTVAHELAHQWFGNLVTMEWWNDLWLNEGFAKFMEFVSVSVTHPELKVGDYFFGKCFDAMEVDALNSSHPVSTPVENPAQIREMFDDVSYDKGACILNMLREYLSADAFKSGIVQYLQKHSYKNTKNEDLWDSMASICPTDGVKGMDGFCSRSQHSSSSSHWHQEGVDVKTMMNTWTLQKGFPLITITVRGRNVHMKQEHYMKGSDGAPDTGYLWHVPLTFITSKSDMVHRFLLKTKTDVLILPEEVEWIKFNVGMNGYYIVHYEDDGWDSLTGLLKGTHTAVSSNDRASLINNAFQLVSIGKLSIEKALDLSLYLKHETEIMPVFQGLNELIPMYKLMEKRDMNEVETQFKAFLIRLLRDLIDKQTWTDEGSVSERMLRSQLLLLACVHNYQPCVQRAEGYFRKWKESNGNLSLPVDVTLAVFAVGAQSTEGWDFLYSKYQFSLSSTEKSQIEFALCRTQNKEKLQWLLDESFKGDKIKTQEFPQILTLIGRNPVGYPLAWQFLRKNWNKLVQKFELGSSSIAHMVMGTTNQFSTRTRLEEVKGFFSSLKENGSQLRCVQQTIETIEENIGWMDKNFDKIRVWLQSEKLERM

[15] = DRD fibroblast viability loss – cell-based, non-viral oncogenic, luminescence, dose response (AID 1934); type: functional; conditions: Homo sapiens
[16] = Luminescence Cell-Based Dose Confirmation HTS to Identify Inhibitors of Platelet Dense Granule Release. [Related pubchem assays: 1663 (Primary HTS), 1678 (Summary of Project)]; type: functional
BJ [17] = test: cells; type: functional, cell-based, Homo sapiens; conditions: Homo sapiens, BJ
[18] = molecular target: Luciferin 4-monooxygenase (Photinus pyralis, UniProt P08659); test: inhibition of purified Photinus pyralis luciferase – biochemical, luminescence, dose response (AID 1891)
Sequence of Luciferin 4-monooxygenase (P08659 whole entry): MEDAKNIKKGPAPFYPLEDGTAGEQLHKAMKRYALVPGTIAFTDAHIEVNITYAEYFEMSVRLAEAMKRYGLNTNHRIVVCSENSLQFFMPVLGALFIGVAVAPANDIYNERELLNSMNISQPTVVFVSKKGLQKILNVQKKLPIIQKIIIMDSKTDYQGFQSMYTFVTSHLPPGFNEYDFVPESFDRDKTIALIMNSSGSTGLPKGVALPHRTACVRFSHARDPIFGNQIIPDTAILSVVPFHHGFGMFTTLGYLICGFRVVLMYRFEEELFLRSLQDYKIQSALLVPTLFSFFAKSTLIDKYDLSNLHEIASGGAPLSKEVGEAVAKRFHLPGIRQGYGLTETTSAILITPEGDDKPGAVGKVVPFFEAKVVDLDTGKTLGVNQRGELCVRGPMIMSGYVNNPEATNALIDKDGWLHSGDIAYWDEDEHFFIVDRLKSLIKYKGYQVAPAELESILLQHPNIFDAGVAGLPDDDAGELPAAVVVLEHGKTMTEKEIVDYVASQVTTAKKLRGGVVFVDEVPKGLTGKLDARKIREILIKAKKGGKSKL

BJ [19] = test: growth inhibition of engineered Ras-driven BJ cells – cell-based, alamar blue fluorescence, cherrypicked samples, dose response (AID 2631); type: functional; conditions: Homo sapiens;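 also: confirmatory dose-response assay in RAS-dependent BJ fibroblasts engineered with TERT, LT and ST, with cytotoxicity read by fluorescence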
[20] = viability loss in HepG2 hepatoma cells – cell-based, ATP luminescence, cherry-pick, activator set 2, cytotoxicity control, dose response (AID 1053143); type: functional
BJ [21] = test: BJ-TERT-LT-ST fibroblast viability loss – cell-based, RAS-independent, luminescence, dose response (AID 1935); type: functional; conditions: Homo sapiens;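 also: BJ fibroblasts immortalized with TERT plus LT and ST oncogenes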
INS1 = test: INS-1E survival protection against cytokine death – cell-based, luminescence, retest, dose response (AID 449756); type: functional; conditions: Rattus norvegicus;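 also: cell death triggered by IL-1 beta plus TNF-alpha plus IFN-gamma mixture; protective hits raise ATP signal compared with cytokine alone wells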
BJ [22] = test: BJ-TERT fibroblast viability loss – cell-based, RAS-independent, luminescence, dose response (AID 1933); type: functional; conditions: Homo sapiens
[23] = general mammalian cell viability loss – inhibitor set, cherry-pick, set 2, cytotoxicity control for miR-122 modulator project, dose response (AID 720697); type: functional, cell-based
[24] = OVCAR8 cell viability loss – plate reader, dry powder samples, PAX8 project, dose response (AID 743197); type: functional, cell-based; conditions: OVCAR-8
[25] = general mammalian cell viability loss – activator set, cherry-pick, cytotoxicity control for miR-122 modulator project, dose response (AID 720690); type: functional, cell-based;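 also: HEK293T human cells scored for general mammalian cytotoxicity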
[26] = activation of miR-122 Renilla sensor silencing – cell-based, Huh7 psiCHECK-miR122, Renilla luciferase, cherry-picked, dose response (AID 651956); type: functional;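 also: huh7 hepatoma cells stably carrying a psiCHECK-2 miR-122 sensor plasmid; renilla luciferase signal reporting endogenous miR-122 activity after 48 h compound exposure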
[27] = IGROV1 cell killing – plate reader, dry powder samples, PAX8 inhibitor project, dose response (AID 743043); type: functional, cell-based; conditions: IGROV-1
Paired box protein Pax-8 = Paired box protein Pax-8 (Homo sapiens, UniProt Q06710); test: PAX8 transcriptional activity inhibition in RMG-I – RMG-I cells, luciferase, cherry-pick, dose response (AID 687027); type: functional, cell-based;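 also: luciferase reporter driven by Pax8 target thyroperoxidase promoter measured by SteadyGlo luminescence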
Sequence of Paired box protein Pax-8 (Q06710 whole entry): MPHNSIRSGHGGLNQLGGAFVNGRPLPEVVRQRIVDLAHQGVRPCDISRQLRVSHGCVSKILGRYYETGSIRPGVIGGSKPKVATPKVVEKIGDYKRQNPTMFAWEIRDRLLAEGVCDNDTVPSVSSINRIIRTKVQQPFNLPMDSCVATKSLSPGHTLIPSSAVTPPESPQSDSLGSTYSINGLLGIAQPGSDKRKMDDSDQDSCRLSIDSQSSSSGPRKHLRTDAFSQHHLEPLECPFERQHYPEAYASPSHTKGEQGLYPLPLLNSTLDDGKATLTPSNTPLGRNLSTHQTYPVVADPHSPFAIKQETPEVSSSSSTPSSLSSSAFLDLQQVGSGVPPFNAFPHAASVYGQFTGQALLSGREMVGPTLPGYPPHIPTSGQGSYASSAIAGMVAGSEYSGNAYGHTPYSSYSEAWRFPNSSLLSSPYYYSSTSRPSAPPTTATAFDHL

[28] = A Cell-Based Confirmatory Screen for Compounds that Inhibit VEEV, TC-83 (8).; type: functional
[29] = A Cell-Based Confirmatory Screen for Compounds that Inhibit VEEV, TC-83 (6).; type: functional
[30] = molecular target: Metabotropic glutamate receptor 3 (Rattus norvegicus, UniProt P31422); test: inhibition of rat mGlu3 glutamate signaling – HEK/GIRK cells, thallium flux, dose response (AID 651839); type: functional
Sequence of Metabotropic glutamate receptor 3 (P31422 whole entry): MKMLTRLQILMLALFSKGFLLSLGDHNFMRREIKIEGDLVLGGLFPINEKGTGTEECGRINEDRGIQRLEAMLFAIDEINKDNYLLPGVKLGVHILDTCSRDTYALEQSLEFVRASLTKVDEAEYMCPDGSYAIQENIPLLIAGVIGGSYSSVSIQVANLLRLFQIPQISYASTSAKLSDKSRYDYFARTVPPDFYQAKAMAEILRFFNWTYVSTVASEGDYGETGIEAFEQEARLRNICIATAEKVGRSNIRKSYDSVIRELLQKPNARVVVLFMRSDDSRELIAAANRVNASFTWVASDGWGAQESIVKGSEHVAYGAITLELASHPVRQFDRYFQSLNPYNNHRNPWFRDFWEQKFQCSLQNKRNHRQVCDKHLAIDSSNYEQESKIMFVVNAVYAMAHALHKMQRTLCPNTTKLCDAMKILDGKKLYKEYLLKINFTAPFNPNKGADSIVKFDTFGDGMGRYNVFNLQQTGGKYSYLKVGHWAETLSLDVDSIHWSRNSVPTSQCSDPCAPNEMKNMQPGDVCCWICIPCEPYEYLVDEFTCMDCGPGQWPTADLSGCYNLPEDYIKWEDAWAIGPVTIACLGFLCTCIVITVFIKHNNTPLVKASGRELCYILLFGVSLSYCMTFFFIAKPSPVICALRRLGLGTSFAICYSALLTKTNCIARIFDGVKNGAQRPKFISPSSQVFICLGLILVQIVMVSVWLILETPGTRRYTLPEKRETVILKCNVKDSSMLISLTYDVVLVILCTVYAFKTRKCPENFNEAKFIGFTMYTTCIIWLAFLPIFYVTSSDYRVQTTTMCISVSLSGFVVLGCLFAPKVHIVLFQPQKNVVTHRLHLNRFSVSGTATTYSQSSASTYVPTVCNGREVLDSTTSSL

[31] = molecular target: T3, High affinity choline transporter 1 (Homo sapiens, UniProt Q9GZV3); test: inhibition of SLC5A7-mediated choline transport – cell-based, HEK-293 hCHT, [3H]-choline uptake, dose response (AID 652177); type: functional
T3 sequence (Q9GZV3 whole entry): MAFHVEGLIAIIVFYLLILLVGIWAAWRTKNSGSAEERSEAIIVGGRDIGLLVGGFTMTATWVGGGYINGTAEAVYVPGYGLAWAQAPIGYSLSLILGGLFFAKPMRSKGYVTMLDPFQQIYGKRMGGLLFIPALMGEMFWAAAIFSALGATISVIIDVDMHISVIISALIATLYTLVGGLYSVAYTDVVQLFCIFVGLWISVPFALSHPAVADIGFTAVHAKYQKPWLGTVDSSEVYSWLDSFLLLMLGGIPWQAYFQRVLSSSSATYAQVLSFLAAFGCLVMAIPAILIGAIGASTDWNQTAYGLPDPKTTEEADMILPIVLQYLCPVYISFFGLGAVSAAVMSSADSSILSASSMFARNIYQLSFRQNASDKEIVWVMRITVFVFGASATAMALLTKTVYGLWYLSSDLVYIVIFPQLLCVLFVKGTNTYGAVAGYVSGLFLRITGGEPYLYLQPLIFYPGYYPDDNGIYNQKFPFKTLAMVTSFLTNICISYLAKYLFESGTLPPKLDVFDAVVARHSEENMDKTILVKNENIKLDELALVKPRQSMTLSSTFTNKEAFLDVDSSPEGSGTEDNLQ

N=C(Cc1ccc(Cl)c(Cl)c1)NOC(=O)c1cccs1
AC50 [1]: 3.01 µM (active)
IC50 [2]: > 122 µM (inactive)
EC50 [3]: 0.376 µM (active)
EC50 [4]: > 180 µM (inactive)
EC50 [5]: > 160 µM (inconclusive)
IC50 [6]: > 122 µM (inactive)
EC50 [7]: 11.6 µM (active)

CCCOC(=O)c1ccc(OCC(O)Cn2c(C)nc3ccccc32)cc1 (stereo not given)
EC50 (cells): > 29.9 µM (inactive)
EC50 [8]: 14.6 µM (active)
AC50 [9]: 3.38 µM (active)
AC50 [10]: 8.49 µM (active)
AC50 [11]: 35.6 µM (active)
AC50 [12]: 0.62 µM (active)
AC50 [13]: 5.13 µM (active)
IC50 (Galanin receptor type 3): 1.57 µM (active)

Cc1c(C)c2ccc(O)c(CN3CCCC3)c2oc1=O
AC50 [14]: 7.31 µM (active)

Cc1occc1C(=O)N/N=C/c1ccc2c(c1)OCO2
EC50 [15]: 5.68 µM (active)
EC50 [16]: 1.77 µM (active)
EC50 (BJ [17]): 7.36 µM (active)
EC50 [18]: 1.4 µM (active)
EC50 (BJ [19]): > 133 µM (inactive)
AC50 [20]: 8.12 µM (active)
EC50 (BJ [21]): 16.8 µM (active)
AC50 (INS1): 4.17 µM (active)
EC50 (BJ [22]): 8.43 µM (active)

COc1ccc(CN(C)C[C@H]2OCCCC[C@H](C)Oc3ccc(NC(=O)Nc4ccc(C(F)(F)F)cc4)cc3C(=O)N([C@@H](C)CO)C[C@@H]2C)cc1
AC50 [23]: 11.3 µM (active)
AC50 [24]: > 70 µM (inactive)
AC50 [25]: 18.3 µM (active)
AC50 [26]: 6.4 µM (active)
AC50 [27]: 53.8 µM (active)
AC50 (Paired box protein Pax-8): 8.38 µM (active)

COc1ccc(-n2c(CN3CCNCC3)nc3ccc([N+](=O)[O-])cc3c2=O)cc1
IC50 [28]: < 0.218 µM (active)
IC50 [29]: < 0.22 µM (active)

COc1ccc(COc2ccc(C(=O)N3CCC[C@@H](CO)C3)cc2)cc1
IC50 [30]: 6.84 µM (active)

COc1ccc(C(=O)NCc2cc(C(C)C)no2)cc1OC1CCCN(C)C1 (stereo not given)
IC50 [31]: 1.25 µM (active)
